From US7037928B2, “Compositions of N-(methylethylaminocarbonyl)-4-(-3-methylphenylamino)-3-pyridylsulfonamide and cyclic oligosaccharides” (PLIVA, farmaceutska industrija, dionicko drustvo, priority 2000, dated 2006)

Assay: Release of torasemide (active substance) in water, USP 24
Format: physicochemical
Conditions: 37° C., 50 rpm, 1000 ml
Protocol: The physical mixture of the modification I of torasemide and β-cyclodextrin prepared according to the Example 1 of the present invention was subjected to testing the release of the active substance in water at the temperature of 37° C.
The inclusion complex of the modification I of torasemide and β-cyclodextrin to the Example 3 of the present invention was subjected to testing the release of the active substance in water at the temperature of 37° C.

Released torasemide (%) (time 0 min): 0% | Released torasemide (%) (time 15 min): 0.7% | Released torasemide (%) (time 30 min): 20.3% | Released torasemide (%) (time 45 min): 38.5% | Released torasemide (%) (time 60 min): 51.8% | Released torasemide (%) (time 90 min): 68.5% | Released torasemide (%) (time 120 min): 78.7%
SMILES: Cc1cccc(Nc2ccncc2S(=O)(=O)NC(=O)NC(C)C)c1 [Modification I of torasemide, N-(1-methylethylaminocarbonyl)-4-(3-methylphenylamino)-3-pyridylsulfonamide]
